# Source: paper PMC11784839, “Monoaminergic neurotransmitters are bimodal effectors of tau aggregation” (Science Advances, 2025)
# Molecular target: tau (Homo sapiens, UniProt P10636)
# Assay: MCE Phenols Library screening, tau biosensor cell seeding assay (AvZ)
# Format: cell-based
# Conditions: for Z repl 1 / Z Repl 2: Z score; for Z repl 1 / raw data 1: replicate 1; for Z Repl 2 / raw data 2: replicate 2; for AvZ (average z score of seeding, SDs from the mean level of seeding): 10 μM phenol in cell cultures, AD brain homogenate preincubated 16 hours, two biological replicates, positive = catalyzes seeding, negative = inhibits
# [1] = average Z score of the two replicates, MCE Phenols Library screen
# [2] = average puncta of the two replicates
# [3] = average Z score of two replicates, Phenols Library screen
# [4] = average Z score of the two replicates, tau seeding
# Sequence of tau (P10636 623-695 limits assumed): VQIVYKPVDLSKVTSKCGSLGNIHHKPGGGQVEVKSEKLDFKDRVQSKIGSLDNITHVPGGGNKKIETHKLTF
Compound,Z repl 1,Z Repl 2,"av Z (average Z score of the two replicates, tau biosensor seeding, MCE Phenols Library screen)",av puncta (average of raw data 1 and 2),raw data 1 (puncta),raw data 2 (puncta),av Z [1],av puncta [2],"AvZ (average z score of seeding, SDs from the mean level of seeding)",raw data 1 (raw puncta),raw data 2 (raw puncta),av Z [3],av Z [4]
COc1c(CC=C(C)C)c(O)cc2oc(=O)c(-c3ccc(O)cc3O)cc12 [Glycycoumarin],0.796,0.821,0.808,28718.5,35905.3,21531.6,–,–,–,–,–,–,–
Tubuloside A,0.218,0.274,–,22327.4,28967.6,15687.1,–,–,–,–,–,–,–
O=C(O[C@@H]1Cc2c(O)cc(O)cc2O[C@H]1c1cc(O)c(O)c(O)c1)c1cc(O)c(O)c(O)c1 [(-)-Gallocatechin gallate],–,-1.187,–,257.55,427.718,87.382,–,–,–,–,–,–,–
Oc1cc(O)c2c(c1)O[C@H](c1ccc(O)c(O)c1)[C@H](O)[C@H]2c1c(O)cc(O)c2c1O[C@H](c1ccc(O)c(O)c1)[C@H](O)C2 [Procyanidin B2],-0.678,-0.711,–,–,18204.5,5175.99,-0.695,11690.3,–,–,–,–,–
O=C(O[C@@H]1Cc2c(O)cc(O)cc2O[C@@H]1c1ccc(O)c(O)c1)c1cc(O)c(O)c(O)c1 [(-)-Epicatechin gallate],-1.161,-0.434,–,10272.2,12408.5,8135.9,-0.797,–,–,–,–,–,–
COc1cc(CNC(=O)CCCCCC(C)C)ccc1O [Nordihydrocapsaicin],-0.001,-0.682,–,–,–,–,–,15905.5,-0.342,26333.1,5477.91,–,–
Cc1ccc(C(C)C)cc1O [Carvacrol],0.54,1.419,–,30376.1,32834.5,27917.7,–,–,0.979,–,–,–,–
O=c1c(O)c(-c2cc(O)c(O)c(O)c2)oc2cc(O)ccc12 [Robinetin],-0.499,-0.831,–,–,20360.8,3888.25,-0.665,12124.5,–,–,–,–,–
Oc1cc(O)c2cc(O)c(-c3cc(O)c(O)c(O)c3)[o+]c2c1.[Cl-] [Delphinidin (chloride)],–,-0.674,–,2997.99,426.071,5569.91,-1.417,–,–,–,–,–,–
"COc1cc(/C=C/C(=O)OCC2OC(OC3(CO)OC(CO)C(O)C3OC(=O)/C=C/c3cc(OC)c(O)c(OC)c3)C(O)C(O)C2O)cc(OC)c1O (centres unmarked) [(E)-3',6-Disinapoylsucrose]",0.224,-0.662,–,–,–,–,-0.219,17367.3,–,29041,5693.57,–,–
NCCCN(CCCCNCCCNC(=O)CCc1ccc(O)c(O)c1)C(=O)CCc1ccc(O)c(O)c1 [Kukoamine B],-1.263,-0.72,–,8130.71,11188.8,5072.6,-0.992,–,–,–,–,–,–
Oc1cc(O)cc(/C=C/c2c(O)cccc2O)c1 [Gnetol],-2.02,-1.135,–,1372.64,2096.46,648.824,-1.577,–,–,–,–,–,–
CC(=O)O[C@@H](CC=C(C)C)C1=CC(=O)c2c(O)ccc(O)c2C1=O [Acetylalkannin],-0.759,-0.292,–,–,17242.7,9643.51,-0.525,13443.1,–,–,–,–,–
OCc1ccccc1O [Salicyl alcohol],-0.325,-0.555,–,–,–,–,–,14639.5,-0.44,22445.8,6833.28,–,–
O=C1c2c(O)cccc2C([C@@H]2O[C@H](CO)[C@@H](O)[C@H](O)[C@H]2O)c2cc(CO)cc(O)c21 (some centres unmarked) [Aloin(mixture of A&B)],-0.336,-0.332,–,–,–,–,-0.334,15768.9,–,22314.5,9223.26,–,–
O=C(/C=C/c1ccc(O)c(O)c1)c1ccc(O)c(O)c1O [Okanin],-1.882,-1.187,–,1923.27,3755.83,90.703,-1.534,–,–,–,–,–,–
COc1ccc(CC(=O)c2ccc(O)cc2O)cc1 [Ononetin],-0.169,0.358,–,20456.3,24324.1,16588.6,–,–,–,–,–,0.095,–

Compound,Z repl 1,Z Repl 2,"av Z (average Z score of the two replicates, tau biosensor seeding, MCE Phenols Library screen)",av puncta (average of raw data 1 and 2),raw data 1 (puncta),raw data 2 (puncta),av Z [1],av puncta [2],"AvZ (average z score of seeding, SDs from the mean level of seeding)",raw data 1 (raw puncta),raw data 2 (raw puncta),av Z [3],av Z [4]
COc1c(O)cc2occ(-c3ccc(O)cc3)c(=O)c2c1O [Tectorigenin],-0.071,-0.055,–,18839.4,25501.8,12177,–,–,–,–,–,-0.063,–
COc1ccc(-c2oc3c(CC=C(C)C)c(O[C@@H]4O[C@H](CO)[C@@H](O)[C@H](O)[C@H]4O)cc(O)c3c(=O)c2O[C@@H]2O[C@@H](C)[C@H](O)[C@@H](O)[C@H]2O[C@@H]2O[C@H](CO)[C@@H](O)[C@H](O)[C@H]2O)cc1 [Epimedin A],-1.302,-0.744,–,7768.23,10713.2,4823.23,-1.023,–,–,–,–,–,–
COc1cc2c(=O)c(-c3ccc(O)cc3)coc2cc1O [Glycitein],0.123,-0.524,–,–,–,–,-0.2,17498.7,–,27830.8,7166.64,–,–
C=C(C)[C@H](CC=C(C)C)Cc1c(O)cc(OC)c2c1O[C@H](c1ccc(O)cc1OC)CC2=O [(2S)-2'-Methoxykurarinone],0.362,0.799,–,25999.8,30700.9,21298.7,–,–,–,–,–,–,0.581
"CC(C)=CC[C@H](OC(=O)C=C(C)C)C1=CC(=O)c2c(O)ccc(O)c2C1=O [?,?-Dimethylacrylalkannin]",0.881,0.516,–,27599.4,36919.9,18278.8,–,–,–,–,–,–,0.698
O=c1c(O[C@@H]2O[C@H](CO)[C@@H](O)[C@H](O)[C@H]2O[C@@H]2O[C@H](CO)[C@@H](O)[C@H](O)[C@H]2O)c(-c2ccc(O)cc2)oc2cc(O)cc(O)c12 [Kaempferol 3-O-sophoroside],-0.587,0.035,–,–,–,–,-0.276,16225.3,–,19307.9,13142.7,–,–
COc1cc(CCN)ccc1O [3-Methoxytyramine],0.052,-0.661,–,–,–,–,–,16341.1,-0.304,26971.9,5710.28,–,–
O=C(O)Cc1cc(I)c(Oc2cc(I)c(O)c(I)c2)c(I)c1 [Tetrac],0.158,-0.425,–,18236.7,28241.9,8231.59,–,–,–,–,–,-0.133,–
Cc1cc(O)c2c(=O)c3c(O)cc(O)c4c5c(O)cc(O)c6c(=O)c7c(O)cc(C)cc7c(c65)c(c2c1)c34 [Protohypericin],-0.657,-0.804,–,–,18463.4,4183.21,-0.73,11323.3,–,–,–,–,–
"Oc1cc2cc[nH]c2cc1O [5,6-Dihydroxyindole]",-0.206,-0.973,–,–,23871.3,2376.21,–,13123.8,-0.59,–,–,–,–
OC[C@H]1O[C@@H](Oc2cc3c(O)cc(O)cc3[o+]c2-c2ccc(O)c(O)c2)[C@H](O[C@@H]2OC[C@@H](O)[C@H](O)[C@H]2O)[C@@H](O)[C@@H]1O.[Cl-] [Cyanidin 3-sambubioside (chloride)],-0.124,-1.008,–,–,24866.3,1999.21,-0.566,13432.8,–,–,–,–,–
Cc1cc(=O)oc2cc(O)c(O)cc12 [4-Methylesculetin],0.302,-0.022,–,21252.2,29975.4,12529,–,–,–,–,–,–,0.14
O=C(CCc1ccc(O)c(O)c1)NCCCNCCCCNCCCNC(=O)CCc1ccc(O)c(O)c1 [Kukoamine A],-0.156,-0.952,–,–,24479.5,2602.81,-0.554,13541.2,–,–,–,–,–
Oc1cc(O)c2c(c1)O[C@H](c1cc(O)c(O)c(O)c1)[C@H](O)C2 [(-)-Epigallocatechin],-0.424,-0.047,–,–,–,–,-0.236,16761.1,–,21261.4,12260.9,–,–
CCCCCCC/C=C/C(=O)CCc1ccc(O)c(OC)c1 [[8]-Shogaol],-0.527,-0.802,–,–,20022.1,4200.38,–,12111.2,-0.665,–,–,–,–
O=C1C[C@@H](c2ccc(O)c(O)c2)Oc2cc(O[C@@H]3O[C@H](CO)[C@@H](O)[C@H](O)[C@H]3O)cc(O)c21 [Eriodictyol-7-O-glucoside],-0.303,0.417,–,19967.8,22716.1,17219.4,–,–,–,–,–,0.057,–
